The term IC50 denotes the concentration that inhibits the measured activity by half. What is called AUC is the area under the concentration-time curve, a measure of exposure. What is called Cmax is the peak of the concentration-time curve.

The values below come from patent US10807974B2, “Methylamine derivatives as lysysl oxidase inhibitors for the treatment of cancer” (The Institute of Cancer Research: Royal Cancer Hospital, priority 2016, dated 2020).

Series [1] addresses LOXL2 (Homo sapiens (Human), UniProt Q9Y4K0). Kind of series: LOXL2 enzyme activity assay (ROS-Glo; pre-incubation 20 min Method (a), 60 min Method (b), 20 h Method (c)). Type of series: biochemical.
Series [2] deals with human cancer cell lines. The settings on record: several human cancer cell lines; cited from earlier work.
Series [3] has as its system 3D cell culture. The settings on record: 3D cell culture (not in 2D) (Schuetze, Roehrig et al. 2015); cited from earlier work.
Series [4] deals with TGF beta signalling (pSMAD2). As to the kind of experiment: TGF beta signalling (pSMAD2). Type of series: cell-based. As to conditions: FIG. 15b.
The test system of series [5] is Staphylococcus Aureus. The settings on record: Beerlage, Greb et al. 2013; cited from earlier work.
For series [6], the system named is human breast cancer cells. As to conditions: mice treated with conditioned medium in the presence of BAPN; cited from earlier work.
Series [7] relates to myocardial fibrosis. As to conditions: mouse model (Rosin, Sopel et al. 2015); cited from earlier work.
Series [8] relates to experimental pulmonary hypertension. As to conditions: Nave, Mizikova et al. 2014; cited from earlier work.
In series [9] the test system is MATN2 in MDA-MB-231 cells. As to the kind of experiment: MATN2 level in treated cells. It is filed as cell-based, human. The protocol: All samples were fixed in 4% paraformaldehyde (EMS). Fixed cells were then subjected to incubation with primary antibodies followed by fluorescence secondary antibodies (Life Technologies) to visualise extracellular proteins. Anti-human MATN2 (R&D) antibody was used at 1:100 dilutions. DAPI (Sigma) was used to stain DNA.
Proteins were extracted from cultured cells using cell lysis buffer (Cell Signalling Technology) with the addition of protease and phosphatase inhibitor cocktails (Pierce). Protein concentrations were measured using Pierce 660 nm protein assay reagent and SpectaMax M5 plate reader. […] Separated proteins were transferred to nitrocellulose membranes using a Trans-Blot turbo transfer system (Bio-Rad). Following blocking with Odyssey blocking buffer (Li-COR), membranes were incubated with two primary antibodies of different species at 4° C. over night. Corresponding fluorescence secondary antibodies (Li-COR) of different excitation and emission wavelengths were used to visualize the protein of interest on an Odyssey CLx infrared imaging system (Li-COR). Quantification of band fluorescent intensity was achieved using Li-COR ImageStudio. The following primary antibodies were used, anti-LOX (Sigma), anti-human MATN2 (R&D), anti-EGFR and anti-pY1068EGFR (Cell Signalling Technology), and anti-GAPDH (Millipore).

Series [10] deals with cervical cancer cells. The settings on record: cervical cancer cells (Yang et al. 2013); cited from earlier work.
Series [11] concerns adipose tissue. As to conditions: Heiberg, Khan et al. 2009; cited from earlier work.
Series [12] has as its system schistosomiasis. The settings on record: cited from earlier work.
For series [13], the system named is human breast cancer cells. As to conditions: cited from earlier work.
Series [14] deals with MAO-A (Homo sapiens (Human), UniProt P21397). As to the kind of experiment: Monoamine oxidase A (MAO-A) selectivity assay. It is filed as biochemical.
Series [15] concerns diet-induced obesity in rats. The settings on record: diet-induced obesity in rats (Miana, Galan et al. 2015); cited from earlier work.
Series [16] has as its target MAO-B (Homo sapiens (Human), UniProt P27338). Kind of series: Monoamine oxidase B (MAO-B) selectivity assay. Type of series: biochemical.
Series [17] relates to angiotensin II-induced cardiac hypertrophy. As to conditions: in vivo (Ohmura, Yasukawa et al. 2012); cited from earlier work.
The nature of series [18]: in vivo. As to conditions: female, mouse, po, 50 mg/kg.
Series [19] in a line: in vivo. The settings on record: rat, po, 20 mg/kg.
Setting [20] is: read-out: LOXL2 IC50 b) 1 hr, pre-incubation 1 hr, Method (b).

Where a name gives a salt, the structure may show the parent alone. Read-outs that look alike come from different tables or passages of the source.

Chain of MAO-A (P21397 whole entry): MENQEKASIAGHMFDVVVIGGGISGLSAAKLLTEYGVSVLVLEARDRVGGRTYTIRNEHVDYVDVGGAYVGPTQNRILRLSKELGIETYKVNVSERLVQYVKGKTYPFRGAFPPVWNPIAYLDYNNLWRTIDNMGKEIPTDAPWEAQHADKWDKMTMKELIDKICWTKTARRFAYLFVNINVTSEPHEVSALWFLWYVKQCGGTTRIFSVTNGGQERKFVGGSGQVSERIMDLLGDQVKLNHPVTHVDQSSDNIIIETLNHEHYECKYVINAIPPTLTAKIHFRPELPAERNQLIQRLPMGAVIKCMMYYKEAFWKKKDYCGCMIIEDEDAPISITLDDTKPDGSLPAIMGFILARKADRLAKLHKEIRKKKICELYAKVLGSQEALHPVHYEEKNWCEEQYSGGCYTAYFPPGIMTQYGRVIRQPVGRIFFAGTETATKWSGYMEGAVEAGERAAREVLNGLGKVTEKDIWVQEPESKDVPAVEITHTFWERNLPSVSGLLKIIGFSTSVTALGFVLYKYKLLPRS
Chain of MAO-B (P27338 whole entry): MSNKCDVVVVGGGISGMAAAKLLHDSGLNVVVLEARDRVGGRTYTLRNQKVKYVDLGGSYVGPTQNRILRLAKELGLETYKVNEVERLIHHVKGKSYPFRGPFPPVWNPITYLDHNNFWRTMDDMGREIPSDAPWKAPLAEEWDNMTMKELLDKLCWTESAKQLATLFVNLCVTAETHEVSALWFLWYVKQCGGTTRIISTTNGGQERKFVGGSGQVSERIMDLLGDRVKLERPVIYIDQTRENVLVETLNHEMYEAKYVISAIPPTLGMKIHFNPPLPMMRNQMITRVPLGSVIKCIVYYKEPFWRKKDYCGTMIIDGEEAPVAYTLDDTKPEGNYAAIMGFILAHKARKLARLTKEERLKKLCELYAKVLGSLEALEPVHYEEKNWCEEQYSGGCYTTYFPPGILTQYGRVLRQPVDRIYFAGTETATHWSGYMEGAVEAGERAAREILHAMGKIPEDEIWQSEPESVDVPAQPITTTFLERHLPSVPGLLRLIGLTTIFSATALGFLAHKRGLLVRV
Chain of LOXL2 (Q9Y4K0 26-774, species assumed): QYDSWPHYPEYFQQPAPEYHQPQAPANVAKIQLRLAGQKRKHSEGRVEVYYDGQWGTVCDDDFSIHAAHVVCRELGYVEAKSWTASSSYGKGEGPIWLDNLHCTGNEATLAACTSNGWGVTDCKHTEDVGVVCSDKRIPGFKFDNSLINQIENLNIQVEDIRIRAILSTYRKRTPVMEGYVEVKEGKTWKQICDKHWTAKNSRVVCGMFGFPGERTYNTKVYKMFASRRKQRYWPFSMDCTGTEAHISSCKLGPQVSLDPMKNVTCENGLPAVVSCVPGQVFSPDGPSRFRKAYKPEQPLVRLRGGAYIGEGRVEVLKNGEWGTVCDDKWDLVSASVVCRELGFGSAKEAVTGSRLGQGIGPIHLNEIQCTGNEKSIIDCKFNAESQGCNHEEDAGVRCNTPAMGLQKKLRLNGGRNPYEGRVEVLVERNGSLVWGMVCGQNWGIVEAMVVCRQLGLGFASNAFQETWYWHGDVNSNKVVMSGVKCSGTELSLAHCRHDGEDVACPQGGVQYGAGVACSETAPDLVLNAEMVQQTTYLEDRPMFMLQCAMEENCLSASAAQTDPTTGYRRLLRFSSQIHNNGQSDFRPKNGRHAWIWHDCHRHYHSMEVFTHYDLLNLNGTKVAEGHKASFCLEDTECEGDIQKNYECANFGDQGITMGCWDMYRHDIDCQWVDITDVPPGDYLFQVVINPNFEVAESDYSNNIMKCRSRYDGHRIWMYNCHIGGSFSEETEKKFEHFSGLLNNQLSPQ

For the compound `CS(=O)(=O)c1cc(S(=O)(=O)c2ccc(CN)s2)ccc1-c1ccccc1` [Example 129, (5-((2-(Methylsulfonyl)-[1,1′-biphenyl]-4-yl)sulfonyl)thiophen-2-yl)methanamine Hydrochloride], the IC50 in series [1] (setting [20]) was determined as 480 nM.

In the case of `COc1cc(-c2cn[nH]c2)cc(S(=O)(=O)c2cnc(CN)s2)c1` [Example 142, (5-((3-methoxy-5-(1H-pyrazol-4-yl)phenyl)sulfonyl)thiazol-2-yl)methanamine tri-trifluoroacetate], in [1] (setting [20]), the IC50 was found to be 410 nM.

In the case of `NCc1ncc([S+]([O-])c2ccccc2)s1` (stereo not shown) [Example 95, (5-(Phenylsulfinyl)thiazol-2-yl)methanamine Hydrochloride], the IC50 in [1] (read-out: LOXL2 IC50 c) 20 hr, pre-incubation 20 hr, Method (c)) came to 1000 nM.

`CN(C)C(=O)c1cc(-c2ccccc2)cc(S(=O)(=O)c2csc(CN)n2)c1` [Example 162, 5-((2-(Aminomethyl)thiazol-4-yl)sulfonyl)-N,N-dimethyl-[1,1′-biphenyl]-3-carboxamide Hydrochloride]: the IC50 in series [1] (setting [20]) is 310 nM.

For `NCc1ccc(S(=O)(=O)c2cccc(S(=O)(=O)N3CCCC3c3ccccc3)c2)s1` (stereo not shown) [Example 124, (5-((3-((2-Phenylpyrrolidin-1-yl)sulfonyl)phenyl)sulfonyl)thiophen-2-yl)methanamine Hydrochloride], the IC50 in series [1] (setting [20]) was 120 nM.

For `COCn1cc(-c2cc(OC)cc(S(=O)(=O)c3cnc(CN)s3)c2)cn1` [Example 141, (5-((3-Methoxy-5-(1-(methoxymethyl)-1H-pyrazol-4-yl)phenyl)sulfonyl)thiazol-2-yl)methanamine tri-trifluoroacetate], in [1] (setting [20]), the IC50 worked out at 72 nM.

`CCNC(=O)c1cc(-c2ccccc2)cc(S(=O)(=O)c2cnc(CN)s2)c1` [Example 151, 5-((2-(Aminomethyl)thiazol-5-yl)sulfonyl)-N-ethyl-[1,1′-biphenyl]-3-carboxamide Dihydrochloride]: in series [1] (setting [20]), the IC50 amounted to 77 nM.

Take `N#CCCN` [BAPN, beta-aminopropionitrile]: in series [2], the “in vitro invasion activity” value is listed as “blocks the in vitro invasion activity”. The “sensitivity to doxorubicin and paclitaxel” value in series [3] was “can be restored”. Further, the “TGF beta signalling as indicated by pSMAD2” value in series [4] was “increased TGF beta signalling”. Besides, the “abscesses morphology and collagenisation” value in series [5] was “influences resulting abscesses morphology and collagenisation”. In addition, the “enhanced colonisation of the lung” value in series [6] is recorded as “blocked”. The myocardial fibrosis result in series [7] is on record as “reduces myocardial fibrosis”. Further, in series [8], the “symptoms of experimental pulmonary hypertension” value is listed as “reduces the symptoms”. In addition, the MATN2 level entry in series [9] (FIG. 15b) is on record as “MATN2 reduction”. Also, the MATN2 level entry in series [9] (MDA-MB-231 cells, at a much higher concentration, FIG. 13) was “same effect”. In addition, in [10], the “hypoxia-induced invasion and migration mediated by the EMT” value was “can be inhibited”. Also, the “local adipose tissue inflammation” value in series [11] is on record as “reduces local adipose tissue inflammation”. The “size of the granulomas” value in [12] (Giboda, Zenka et al. 1992) is “reduces the size of the granulomas”. The egg load entry in [12] (in combination with antiparasitic drug PZQ compared to PZQ alone) was “reduces the egg load”. Also, the metastatic tumour growth result in series [13] (breast cancer cells in mice (Erler et al, 2006)) is recorded as “can block metastatic tumour growth”. The invasion and metastasis result in series [13] (orthotopic human breast tumours or circulating human breast cancer cells, CRC, HCC, LKB1-mutant lung adenocarcinoma, anaplastic thyroid cancer, PDAC in mice) was “significantly reduced invasion and metastasis”. Further, in series [14], the “inhibition of MAO-A” value is “neither inhibits”. Moreover, in series [15], the body weight gain result was “reduces body weight gain” and the metabolic profile result is on record as “improves the metabolic profile”. In addition, the “inhibition of MAO-B” value in series [16] was “neither inhibits”. In series [17], the cardiac hypertrophy result was “inhibits angiotensin II-induced cardiac hypertrophy”.

Consider `CS(=O)(=O)c1cc(-c2ccccc2)cc(S(=O)(=O)c2ccc(CN)s2)c1` [Example 68, (5-((5-(Methylsulfonyl)-[1,1′-biphenyl]-3-yl)sulfonyl)thiophen-2-yl)methanamine], for which the MATN2 level entry in [9] (FIG. 15b) was “MATN2 reduction”.

For `CN(C)C(=O)c1cc(-c2ccccc2)cc(S(=O)(=O)c2cnc(CN)s2)c1` [Example 125, 5-((2-(Aminomethyl)thiazol-5-yl)sulfonyl)-N,N-dimethyl-[1,1′-biphenyl]-3-carboxamide Dihydrochloride], the IC50 in series [14] and in series [16] was more than 100000 nM throughout.

Compound `Cc1ccc(-c2cc(S(=O)(=O)c3ccc(CN)s3)ccc2S(C)(=O)=O)cc1` [Example 82, (5-((4′-Methyl-6-(methylsulfonyl)-[1,1′-biphenyl]-3-yl)sulfonyl)thiophen-2-yl)methanamine Hydrochloride] yielded an IC50 in [16] of more than 100000 nM. In series [18], this compound had an area under the curve (AUC) of 12 µM·h and a Cmax of 9.4 µM.

With `CN(C)C(=O)c1cc(-c2cnn(C)c2)cc(S(=O)(=O)c2csc(CN)n2)c1` [Example 164, 3-(2-(Aminomethyl)thiazol-4-yl)sulfonyl)-N,N-dimethyl-5-(1-methyl-1H-pyrazol-4-yl)benzamide Hydrochloride], the IC50 in series [1] (setting [20]) turned out to be 1200 nM.

Turning to `Cn1cc(-c2cc(C(=O)O)cc(S(=O)(=O)c3cnc(CN)s3)c2)cn1` [Example 150, 3-(2-(Aminomethyl)thiazol-5-yl)sulfonyl)-5-(1-methyl-1H-pyrazol-4-yl)benzoic Acid Trihydrochloride], the IC50 in series [14] and in series [16] was more than 100000 nM in each case. In series [18], this compound registered an AUC of 38 µM·h. In series [18], the peak level (Cmax) was 10 µM.

Consider `NCc1ncc(S(=O)(=O)c2cc(C(=O)O)cc(-c3ccccc3)c2)s1` [Example 126, 5-((2-(Aminomethyl)thiazol-5-yl)sulfonyl)-[1,1′-biphenyl]-3-carboxylic Acid Ditrifluoroacetate], for which the IC50 in [14] and in series [16] was more than 100000 nM throughout. For the same compound, the AUC stood at 413 µM·h in [18] and 106 µM·h in series [19]. In addition, the maximum concentration (Cmax) in [18] worked out at 100 µM; in series [19] it was 35 µM.

Turning to `Cn1cc(-c2cc(F)cc(S(=O)(=O)c3cnc(CN)s3)c2)cn1` [Example 131, (5-(3-Fluoro-5-(1-methyl-1H-pyrazol-4-yl)phenyl)sulfonyl)thiazol-2-yl)methanamine Trihydrochloride], the IC50 in series [14] and in series [16] was more than 100000 nM throughout.

In turn, `NCc1ncc(S(=O)(=O)c2cc3ccccc3c3ccccc23)s1` [Example 97, (5-(Phenanthren-9-ylsulfonyl)thiazol-2-yl)methanamine Hydrochloride] registered an IC50 in [16] of more than 100000 nM.

As for `NCc1ncc(S(=O)(=O)c2cc(C(=O)N3CCC(O)C3)cc(-c3ccccc3)c2)s1` (stereo not shown) [Example 149, (5-((2-(Aminomethyl)thiazol-5-yl)sulfonyl)-[1,1′-biphenyl]-3-yl)(3-hydroxypyrrolidin-1-yl)methanone Dihydrochloride], the IC50 in series [1] (pre-incubation 1 hr, Method (b)) stood at 260 nM.

Consider `NCc1ncc(S(=O)(=O)c2cc(C(=O)NCCO)cc(-c3ccccc3)c2)s1` [Example 152, 5-((2-(Aminomethyl)thiazol-5-yl)sulfonyl)-N-(2-hydroxyethyl)-[1,1′-biphenyl]-3-carboxamide Dihydrochloride], for which, in series [1] (setting [20]), the IC50 stood at 560 nM.

Turning to `CCNC(=O)c1cc(-c2cnn(C)c2)cc(S(=O)(=O)c2cnc(CN)s2)c1` [Example 154], the IC50 in series [1] (setting [20]) came out at 150 nM.

In the case of `Cn1cc(-c2cc(C(=O)N3CC[C@@H](O)C3)cc(S(=O)(=O)c3cnc(CN)s3)c2)cn1` [Example 156, (R)-(3-(2-(Aminomethyl)thiazol-5-yl)sulfonyl)-5-(1-methyl-1H-pyrazol-4-yl)phenyl)(3-hydroxypyrrolidin-1-yl)methanone tri hydrochloride], the IC50 in series [1] (setting [20]) came out at 200 nM.

On to `Cn1c(S(=O)(=O)c2ccc3ccccc3c2)cnc1CN` [Example 123, (1-Methyl-5-(naphthalen-2-ylsulfonyl)-1H-imidazol-2-yl)methanamine Dihydrochloride], for which, in [1] (setting [20]), the IC50 was found to be 19000 nM.
